Assay results reported in patent US20230293517A1, “ANTAGONIST COMPOUNDS” (AdoRx Therapeutics Limited, priority 2020, published 2023).
Counter-ions that a name gives are not always drawn.

Experiments:
[1] = molecular target: human Adenosine A2b receptor (Homo sapiens (Human), UniProt P29275); experiment: Adenosine receptor TR-FRET binding assay (A2b); settings: TR-FRET, inhibition of binding of 30 nM CA200645, CHO cell membranes
Summary of the method: (§1)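 CHO membranes, Tb-labelled hA1/hA2a/hA2b/hA3; tracer CA200645 at 100 nM (A1, A2a, A3) or 30 nM (A2b); buffer with saponin, 1% DMSO, pluronic; 2 h RT. NSB with 10 μM XAC. Read TR-FRET (ex 337, em 620/665 nm); IC50 → Ki via Cheng–Prusoff.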

[2] = molecular target: human Adenosine A2a receptor (Homo sapiens (Human), UniProt P29274); experiment: Adenosine receptor TR-FRET binding assay (A2a); settings: inhibition of binding of 100 nM CA200645, CHO cell membranes
Sequence of human Adenosine A2a receptor (P29274 whole entry): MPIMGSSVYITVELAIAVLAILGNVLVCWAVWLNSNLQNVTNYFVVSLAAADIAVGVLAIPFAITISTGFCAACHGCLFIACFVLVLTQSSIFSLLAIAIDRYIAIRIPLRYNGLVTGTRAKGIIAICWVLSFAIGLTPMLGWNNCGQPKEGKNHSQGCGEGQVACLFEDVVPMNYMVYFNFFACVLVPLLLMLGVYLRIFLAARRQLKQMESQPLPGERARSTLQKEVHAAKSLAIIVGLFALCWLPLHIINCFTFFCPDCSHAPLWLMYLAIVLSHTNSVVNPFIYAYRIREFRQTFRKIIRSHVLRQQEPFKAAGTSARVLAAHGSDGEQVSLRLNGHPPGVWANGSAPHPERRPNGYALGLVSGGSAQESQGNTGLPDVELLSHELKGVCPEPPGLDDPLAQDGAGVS
Summary of the method: as §1

[3] = molecular target: human Adenosine A1 receptor (Homo sapiens (Human), UniProt P30542); experiment: Adenosine receptor TR-FRET binding assay (A1); settings: inhibition of binding of 100 nM CA200645, CHO cell membranes
Sequence of human Adenosine A1 receptor (P30542 whole entry): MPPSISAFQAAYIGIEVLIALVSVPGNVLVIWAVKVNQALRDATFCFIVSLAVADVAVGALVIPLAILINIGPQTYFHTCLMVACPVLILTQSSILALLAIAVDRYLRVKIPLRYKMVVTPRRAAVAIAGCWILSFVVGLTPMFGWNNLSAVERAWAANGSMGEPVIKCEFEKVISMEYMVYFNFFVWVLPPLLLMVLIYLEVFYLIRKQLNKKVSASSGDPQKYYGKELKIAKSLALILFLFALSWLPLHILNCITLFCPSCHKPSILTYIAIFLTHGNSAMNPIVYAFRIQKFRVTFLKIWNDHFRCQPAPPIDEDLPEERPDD
Summary of the method: as §1

[4] = molecular target: human Adenosine A3 receptor (Homo sapiens (Human), UniProt P0DMS8); experiment: Adenosine receptor TR-FRET binding assay (A3); settings: inhibition of binding of 100 nM CA200645, CHO cell membranes
Sequence of human Adenosine A3 receptor (P0DMS8 whole entry): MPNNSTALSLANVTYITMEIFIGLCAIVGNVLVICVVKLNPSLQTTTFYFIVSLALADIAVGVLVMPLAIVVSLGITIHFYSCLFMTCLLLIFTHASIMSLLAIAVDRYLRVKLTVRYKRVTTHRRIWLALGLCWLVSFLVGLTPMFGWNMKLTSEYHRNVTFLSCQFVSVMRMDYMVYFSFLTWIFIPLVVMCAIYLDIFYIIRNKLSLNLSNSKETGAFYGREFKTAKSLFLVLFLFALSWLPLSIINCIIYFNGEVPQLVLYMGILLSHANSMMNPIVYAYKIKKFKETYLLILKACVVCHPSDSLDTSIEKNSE
Experimental: Biological Example 1—Adenosine Receptor Time-Resolved Fluorescence Resonance Energy Transfer (TRFRET) Binding Assay
All FRET binding experiments were conducted at room temperature in white 384-well plates, in assay binding buffer containing 1×LabMed (Cisbio, France), 100 μg/mL saponin, 1% DMSO and 0.02% pluronic acid. Binding of the fluorescently labelled Adenosine receptor antagonist XAC (CA200645, FRET acceptor) to terbium-labelled A1, A2a, A2b and A3 adenosine receptors (FRET donors) was detected by time-resolved FRET due to the close proximity of the donor and acceptor in a binding event. To investigate the ability of unlabelled test compounds to bind to Adenosine A1, A2a, A2b and A3 receptors, dose response curves were constructed that determined the ability of a range of concentrations to inhibit the binding of 30 nM CA200645 to the A2b receptor and 100 nM CA200645 to the A1, A2a, and A3 receptor.
Serial dilution (1:3 dilutions) of test compounds in neat DMSO and transfer of a 400 nL sample of test compound into the assay plate was carried out using the Mosquito (TTP Labtech, UK). The compound samples were incubated for 2 hours at room temperature with a fixed concentration of CA200645 defined for each receptor (see above) and CHO cell membranes containing the human Adenosine A1 (0.5 μg/well), A2a (0.3 μg/well), A2b (1 μg/well) or A3 (1 μg/well) receptor in 40 μL of assay buffer. Total and non-specific binding of CA200645 was determined in the absence and presence of 10 μM XAC, respectively. Following 2 hours incubation, the level of CA200645 binding was detected on a Pherastar FSX (BMG Labtech, Germany) using standard TR-FRET settings. The terbium donor was excited with three laser flashes at a wavelength of 337 nm, and donor and acceptor emission was detected at 620 nm and 665 nm wavelengths, respectively. FRET ratios were obtained by multiplying the acceptor/donor ratio value by 10,000. Specific binding was determined by subtracting the non-specific binding FRET ratio from the total binding FRET ratio. Compound IC50 curves were analysed using GraphPad Prism 7.0 (GraphPad, USA) and Ki affinity values were determined from the obtained IC50 values using the method of Cheng and Prusoff.

Sequence of human Adenosine A2b receptor (P29275 whole entry): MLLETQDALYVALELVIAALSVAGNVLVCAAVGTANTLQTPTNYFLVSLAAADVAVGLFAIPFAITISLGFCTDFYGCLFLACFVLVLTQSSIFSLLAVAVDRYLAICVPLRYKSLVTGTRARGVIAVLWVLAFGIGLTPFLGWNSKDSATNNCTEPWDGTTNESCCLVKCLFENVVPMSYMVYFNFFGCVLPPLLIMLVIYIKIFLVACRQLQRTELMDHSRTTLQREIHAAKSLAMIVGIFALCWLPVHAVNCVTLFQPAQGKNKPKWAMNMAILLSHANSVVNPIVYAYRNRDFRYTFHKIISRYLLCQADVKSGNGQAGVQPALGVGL

Row | Structure (SMILES) | Ki [1] | Ki [2] | Ki [3] | Ki [4]
1 | Cc1cc(-c2sc(NC(=O)N3CCN4C(=O)CNC(=O)C4C3)nc2-c2cccc(C#N)c2)cc(C)n1 (stereo not drawn) [Example 6.35, N-[4-(3-Cyanophenyl)-5-(2,6-dimethyl-4-pyridyl)thiazol-2-yl]-6,9-dioxo-1,3,4,7,8,9a-hexahydropyrazino[1,2-a]pyrazine-2-carboxamide] | 20.9 nM | 9.58 nM | 243 nM | 303 nM
2 | Cc1cc(-c2sc(NC(=O)N3CCN4C(=O)COCC4C3)nc2-c2cccc(C#N)c2)cc(C)n1 (stereo not drawn) [Example 6.37, N-[4-(3-Cyanophenyl)-5-(2,6-dimethyl-4-pyridyl)thiazol-2-yl]-4-oxo-6,7,9,9a-tetrahydro-1H-pyrazino[2,1-c][1,4]oxazine-8-carboxamide] | 10.1 nM | 1.82 nM | 91 nM | 356 nM
3 | Cc1cc(-c2sc(NC(=O)N3CCN4C(=O)CN(C)C(=O)C4C3)nc2-c2cccc(C#N)c2)cc(C)n1 (stereo not drawn) [Example 6.39, N-[4-(3-Cyanophenyl)-5-(2,6-dimethyl-4-pyridyl)thiazol-2-yl]-8-methyl-6,9-dioxo-3,4,7,9a-tetrahydro-1H-pyrazino[1,2-a]pyrazine-2-carboxamide] | 39.6 nM | 10.1 nM | 383 nM | 389 nM
4 | Cc1cc(-c2sc(NC(=O)N3CCC(C(=O)O)CC3)nc2-c2cccc(C#N)c2)cc(C)n1 [Example 6.62, 1-[[4-(3-Cyanophenyl)-5-(2,6-dimethyl-4-pyridyl)thiazol-2-yl]carbamoyl]piperidine-4-carboxylic acid] | 23.3 nM | 35.7 nM | 219 nM | 358 nM
5 | Cc1cc(-c2sc(NC(=O)N3CC[C@H](C(=O)O)C3)nc2-c2cccc(C#N)c2)cc(C)n1 [Example 6.63, (3S)-1-[[4-(3-Cyanophenyl)-5-(2,6-dimethyl-4-pyridyl)thiazol-2-yl]carbamoyl]pyrrolidine-3-carboxylic acid] | 29.2 nM | 34.3 nM | 343 nM | 200 nM
6 | Cc1cc(-c2sc(NC(=O)N3CC[C@@H](C(=O)O)C3)nc2-c2cccc(C#N)c2)cc(C)n1 [Example 6.65, (3R)-1-[[4-(3-Cyanophenyl)-5-(2,6-dimethyl-4-pyridyl)thiazol-2-yl]carbamoyl]pyrrolidine-3-carboxylic acid] | 17.3 nM | 45.6 nM | 185 nM | 295 nM
7 | Cc1cc(-c2sc(NC(=O)N3CC(C(=O)O)C3)nc2-c2cccc(C#N)c2)cc(C)n1 [Example 6.70, 1-[[4-(3-Cyanophenyl)-5-(2,6-dimethyl-4-pyridyl)thiazol-2-yl]carbamoyl]azetidine-3-carboxylic acid] | 13.1 nM | 9.59 nM | 163 nM | 192 nM
8 | Cc1cc(-c2sc(NC(=O)N3CC[C@@H]3C(C)(C)O)nc2-c2cccc(C#N)c2)cc(C)n1 [Example 6.83, (2R)-N-[4-(3-Cyanophenyl)-5-(2,6-dimethyl-4-pyridyl)thiazol-2-yl]-2-(1-hydroxy-1-methyl-ethyl)azetidine-1-carboxamide] | 102 nM | 67.6 nM | 129 nM | 294 nM
9 | Cc1cc(-c2sc(NC(=O)N3CCC(N4CCOCC4)C3)nc2-c2cccc(C#N)c2)cc(C)n1 (stereo not drawn) [Example 6.84, N-[4-(3-Cyanophenyl)-5-(2,6-dimethyl-4-pyridyl)thiazol-2-yl]-3-morpholino-pyrrolidine-1-carboxamide hemi formate salt] | 8.4 nM | 4.46 nM | 216 nM | 568 nM
10 | Cc1cc(-c2sc(NC(=O)N3CC(=O)N[C@H](C)C3)nc2-c2cccc(C#N)c2)cc(C)n1 [Example 6.85, (3R)-N-[4-(3-Cyanophenyl)-5-(2,6-dimethyl-4-pyridyl)thiazol-2-yl]-3-methyl-5-oxo-piperazine-1-carboxamide] | 16 nM | 12.1 nM | 44 nM | 216 nM

More lines, now with the values ahead:

Row | Ki [1] | Ki [2] | Ki [3] | Ki [4] | Structure (SMILES)
11 | 8.2 nM | 1.12 nM | 51 nM | 175 nM | Cc1cc(-c2sc(NC(=O)N3CCN4C(=O)CCCC4C3)nc2-c2cccc(C#N)c2)cc(C)n1 (stereo not drawn) [Example 6.43, N-[4-(3-Cyanophenyl)-5-(2,6-dimethyl-4-pyridyl)thiazol-2-yl]-6-oxo-3,4,7,8,9,9a-hexahydro-1H-pyrido[1,2-a]pyrazine-2-carboxamide]
12 | 2.2 nM | 1.27 nM | 51 nM | 324 nM | Cc1cc(-c2sc(NC(=O)N3C[C@H]4COC[C@H]4C3)nc2-c2cccc(C#N)c2)cc(C)n1 [Example 6.49, (3aR,6aS)-N-[4-(3-Cyanophenyl)-5-(2,6-dimethyl-4-pyridyl)thiazol-2-yl]-1,3,3a,4,6,6a-hexahydrofuro[3,4-c]pyrrole-5-carboxamide]
13 | 8.6 nM | 4.3 nM | 120 nM | 238 nM | Cc1cc(-c2sc(NC(=O)N3C[C@@H]4CNC(=O)[C@@H]4C3)nc2-c2cccc(C#N)c2)cc(C)n1 [Example 6.52, (3aS,6aS)-N-[4-(3-Cyanophenyl)-5-(2,6-dimethyl-4-pyridyl)thiazol-2-yl]-3-oxo-1,2,3a,4,6,6a-hexahydropyrrolo[3,4-c]pyrrole-5-carboxamide]
14 | 6.2 nM | 3.09 nM | 185 nM | 455 nM | CCN1CCN(C(=O)Nc2nc(-c3cccc(C#N)c3)c(-c3cc(C)nc(C)c3)s2)CC1 [Example 6.60, N-[4-(3-Cyanophenyl)-5-(2,6-dimethyl-4-pyridyl)thiazol-2-yl]-4-ethyl-piperazine-1-carboxamide]
15 | 5.4 nM | 1.44 nM | 133 nM | 193 nM | Cc1cc(-c2sc(NC(=O)N3CCC4(CCN(C)C4=O)CC3)nc2-c2cccc(C#N)c2)cc(C)n1 [Example 6.77, N-[4-(3-Cyanophenyl)-5-(2,6-dimethyl-4-pyridyl)thiazol-2-yl]-2-methyl-1-oxo-2,8-diazaspiro[4.5]decane-8-carboxamide]
16 | 0.9 nM | 0.67 nM | 24 nM | 37 nM | Cc1cc(-c2sc(NC(=O)N3CC[C@H]3C)nc2-c2cccc(C#N)c2)cc(C)n1 [Example 6.78, (2R)-N-[4-(3-Cyanophenyl)-5-(2,6-dimethyl-4-pyridyl)thiazol-2-yl]-2-methyl-azetidine-1-carboxamide]
17 | 2.4 nM | 0.8 nM | 130 nM | 450 nM | Cc1cc(-c2sc(NC(=O)N3CCC4(CCOC4)C3)nc2-c2cccc(C#N)c2)cc(C)n1 (stereo not drawn) [Example 6.80, N-[4-(3-Cyanophenyl)-5-(2,6-dimethyl-4-pyridyl)thiazol-2-yl]-2-oxa-7-azaspiro[4.4]nonane-7-carboxamide]
18 | 5.1 nM | 3.67 nM | 116 nM | 246 nM | Cc1cc(-c2sc(NC(=O)N3CC[C@H]3C(C)(C)O)nc2-c2cccc(C#N)c2)cc(C)n1 [Example 6.82, (2S)-N-[4-(3-Cyanophenyl)-5-(2,6-dimethyl-4-pyridyl)thiazol-2-yl]-2-(1-hydroxy-1-methyl-ethyl)azetidine-1-carboxamide]
19 | 1.9 nM | 0.68 nM | 2 nM | 181 nM | Cc1cc(-c2sc(NC(=O)N3CCOC[C@@H]3C)nc2-c2cccc(C#N)c2)cc(C)n1 [Example 6.86, (3S)-N-[4-(3-Cyanophenyl)-5-(2,6-dimethyl-4-pyridyl)thiazol-2-yl]-3-methyl-morpholine-4-carboxamide]
20 | 6.7 nM | 1.75 nM | 57 nM | 37 nM | Cc1cc(-c2sc(NC(=O)N3CCC34COC4)nc2-c2cccc(C#N)c2)cc(C)n1 [Example 6.87, N-[4-(3-Cyanophenyl)-5-(2,6-dimethyl-4-pyridyl)thiazol-2-yl]-6-oxa-1-azaspiro[3.3]heptane-1-carboxamide]
21 | 3.5 nM | 1.01 nM | 326 nM | 300 nM | Cc1cc(-c2sc(NC(=O)N3CCC4(CC3)CN(C)C(=O)N4C)nc2-c2cccc(C#N)c2)cc(C)n1 [Example 6.89, N-[4-(3-Cyanophenyl)-5-(2,6-dimethyl-4-pyridyl)thiazol-2-yl]-1,3-dimethyl-2-oxo-1,3,8-triazaspiro[4.5]decane-8-carboxamide]
